Experiments:
[1] = Example XII: 4 week chick feeding test, repeat with five replicates (Table VII); assay type: in vivo, broiler cross chicks; details: for Average 4 Week Performance: Feed Efficiency / Average 4 Week Performance: Gain / Improved Response Over Basal Ration: Feed Efficiency / Improved Response Over Basal Ration: Gain: 25g/T
[2] = Example XII: 4 week chick feeding test, first set (Table VI); assay type: in vivo, broiler cross chicks
From the text: (§1) This example compares growth promotion activity of the product of Example I with other growth promotants at a concentration of 25 g/T in the Basal Ration described in Example VII. The other growth promotants include the product described in Example I of U.S. Pat. No. 3,542,784 -- Burch and quinoxaline-1,4-dioxide. Day old broiler cross chicks were weight equalized into groups of 8 chicks each, and four replicates of 8 chicks each were fed the experimental rations over a 4 week period.
The growth promotion tests described in Example X were repeated with the additional testing the products of Examples II and III.

[3] = Example X: 4 week chick feeding test, 25 g/T; assay type: in vivo, broiler cross chicks; details: for growth rate and feed efficiency response (in words): 25 g/T, Table IV
From the text: as §1

[4] = tested on: Salmonella gallinarum; assay: Bactericide test (agar streak, growth inhibition rated 0/50/100); assay type: cell-based; details: Salmonella enterica
From the text: (§2) Test formulations were examined for bactericidal and/or bacteriostatic activity against the test organisms shown in Tables A and B. These organisms were chosen as being representative of commercially important pathogens affecting animal agriculture. The antibiotic chlortetracycline was chosen as a positive control, since it has a broad spectrum of activity against a large number of organisms, and its activity can be used for comparative purposes.
(§3) Basic test formulations of the product of Examples I, II, III, and of chlortetracycline were prepared by dissolving 16 mg (0.016 g) in 2.0 ml of stock emulsifier solution (0.25% Triton X-155 in acetone by volume) and making each solution up to 50 ml with deionized water. The concentration of the test compound in the basic formulation was 320 ppm. Lower concentrations of the test compound were obtained by diluting the basic formulation with a 4% solution of the stock emulsifier in deionized water so that each dilution in the series differed only in test compound content.
(§4) Nutrient-tryptic soy agar (NTA) consisting of 2.0% Difco Bactoagar 0.8% nutrient broth (Difco), and 0.5% tryptic soy broth (Difco) was prepared and sterilized by autoclaving. A 2 ml aliquot of each test formulation was added to 8 ml of molten NTA. This mixture was then plated in a sterile polystyrene petri dish (100 × 15 mm). After the agar was set, suspensions of each of the test organisms were simultaneously streaked onto the surface of the agar. The inoculated plates were incubated for 48 hr. at 28°C. The inhibition of growth of each organism was rated by visual comparison with the organism developing on non-treated agar. Growth inhibition reported as percent control was rated in three categories as follows: 0% control, growth equivalent to that on non-treated agar; 50% control, sparse development and separated colonies; 100% control, no visible growth or development of colonies.
(§5) Test formulations of the product of Example IV were examined for bactericidal and/or bacteriostatic activity against the test organisms shown in Table B using the Bactericide Test described in Example V. The inhibition of organism growth with each diluted test formulation was rated visually by comparison with the organism developing on a non-treated control agar plate. Growth inhibition reported as percent control was rated in three categories as follows: 0% control, growth equivalent to that on non-treated agar; 50% control is sparse development and separated colonies; and 100% control, development of individual colonies was not apparent.

[5] = tested on: Staphylococcus aureus; assay: as above; assay type: cell-based
From the text: as §2, §3, §4, §5

[6] = tested on: Streptococcus faecalis; assay: as above; assay type: cell-based; details: Enterococcus faecalis
From the text: as §2, §3, §4, §5

[7] = tested on: Salmonella cholerasuis; assay: as above; assay type: cell-based
From the text: as §2, §3, §4, §5

[8] = tested on: Escherichia coli; assay: as above; assay type: cell-based
From the text: as §2, §3, §4, §5

[9] = tested on: Streptococcus agalactiae; assay: as above; assay type: cell-based
From the text: as §2, §3, §4

[10] = tested on: Streptococcus group E; assay: as above; assay type: cell-based
From the text: as §2, §3, §4

[11] = tested on: Erysipelothrix rhusiopathiae; assay: as above; assay type: cell-based
From the text: as §2, §3, §4

[12] = tested on: Salmonella typhimurium; assay: as above; assay type: cell-based; details: Salmonella enterica
From the text: as §2, §3, §4

[13] = tested on: Bordetella bronchiseptica; assay: as above; assay type: cell-based
From the text: as §2, §3, §4

[14] = tested on: Vibrio coli; assay: as above; assay type: cell-based; details: Campylobacter coli
From the text: as §2, §3, §4

[15] = Example XI: 4 week chick feeding test, five replicates; assay type: in vivo, broiler cross chicks; details: Table V
From the text: as §1
The growth promotion tests described in Example X were repeated with the exception that fives replicates of 8 chicks each were fed the formulations described in Table V for four weeks.

## O=[N+]([O-])c1ccc(-c2nc(Nc3ccc(O)cc3)c3ccccc3n2)o1 [Example III of U.S. 3,542,784 - Burch, 2-(5-nitro-2-furyl)-4-(p-hydroxyaniline)quinazoline, reference compound]
[1]
  Average 4 Week Performance: Feed Efficiency: 1.737
  Average 4 Week Performance: Gain: 668.1 g
  Improved Response Over Basal Ration: Feed Efficiency: +2.7%
  Improved Response Over Basal Ration: Gain: -2.1%
[1]; Table VII
  growth rate / feed efficiency response (in words): essentially no effect on growth rate or feed efficiency
[2]; Table VI
  growth rate / feed efficiency response (in words): essentially no effect on growth rate or feed efficiency
[3]; 25g/T
  Average 4 Week Performance: Feed Efficiency: 1.525
  Average 4 Week Performance: Gain: 809.5 g
  Improved Response Over Basal Ration: Feed Efficiency: +1.7%
  Improved Response Over Basal Ration: Gain: +5.8%
[3]
  growth rate and feed efficiency response (in words): appeared to give a growth response in this test but with a slight, it any, effect on feed efficiency

## O=[N+]([O-])c1ccc(C=Cc2nc(Nc3ccccc3O)c3ccccc3n2)o1 [Example III, 2-[2-(5-nitro-furyl)vinyl]-4-(o-hydroxyanilino)quinazoline]
[4]; 0.125 ppm
  inhibition at 0.125 ppm: 0%
[4]; 0.25 ppm
  inhibition at 0.25 ppm: 0%
[4]; 0.5 ppm
  inhibition at 0.5 ppm: 0%
[4]; 1 ppm
  inhibition at 1 ppm: 0%
[4]; 2 ppm
  inhibition at 2 ppm: 0%
[4]; 4 ppm
  inhibition at 4 ppm: 50%
[4]; 8 ppm
  inhibition at 8 ppm: 50%
[4]; 16 ppm
  inhibition at 16 ppm: 100%
[4]; 32 ppm
  inhibition at 32 ppm: 100%
[4]; 64 ppm
  inhibition at 64 ppm: 100%
[5]; 0.125 ppm
  inhibition at 0.125 ppm: 0%
[5]; 0.25 ppm
  inhibition at 0.25 ppm: 0%
[5]; 0.5 ppm
  inhibition at 0.5 ppm: 0%
[5]; 1 ppm
  inhibition at 1 ppm: 0%
[5]; 2 ppm
  inhibition at 2 ppm: 0%
[5]; 4 ppm
  inhibition at 4 ppm: 0%
[5]; 8 ppm
  inhibition at 8 ppm: 0%
[5]; 16 ppm
  inhibition at 16 ppm: 0%
[5]; 32 ppm
  inhibition at 32 ppm: 0%
[5]; 64 ppm
  inhibition at 64 ppm: 0%
[6]; 0.125 ppm
  inhibition at 0.125 ppm: 0%
[6]; 0.25 ppm
  inhibition at 0.25 ppm: 0%
[6]; 0.5 ppm
  inhibition at 0.5 ppm: 50%
[6]; 1 ppm
  inhibition at 1 ppm: 100%
[6]; 2 ppm
  inhibition at 2 ppm: 100%
[6]; 4 ppm
  inhibition at 4 ppm: 100%
[6]; 8 ppm
  inhibition at 8 ppm: 100%
[6]; 16 ppm
  inhibition at 16 ppm: 100%
[6]; 32 ppm
  inhibition at 32 ppm: 100%
[6]; 64 ppm
  inhibition at 64 ppm: 100%
[7]; 0.125 ppm
  inhibition at 0.125 ppm: 0%
[7]; 0.25 ppm
  inhibition at 0.25 ppm: 0%
[7]; 0.5 ppm
  inhibition at 0.5 ppm: 0%
[7]; 1 ppm
  inhibition at 1 ppm: 0%
[7]; 2 ppm
  inhibition at 2 ppm: 0%
[7]; 4 ppm
  inhibition at 4 ppm: 50%
[7]; 8 ppm
  inhibition at 8 ppm: 50%
[7]; 16 ppm
  inhibition at 16 ppm: 100%
[7]; 32 ppm
  inhibition at 32 ppm: 100%
[7]; 64 ppm
  inhibition at 64 ppm: 100%
[8]; 0.125 ppm
  inhibition at 0.125 ppm: 0%
[8]; 0.25 ppm
  inhibition at 0.25 ppm: 0%
[8]; 0.5 ppm
  inhibition at 0.5 ppm: 0%
[8]; 1 ppm
  inhibition at 1 ppm: 0%
[8]; 2 ppm
  inhibition at 2 ppm: 0%
[8]; 4 ppm
  inhibition at 4 ppm: 0%
[8]; 8 ppm
  inhibition at 8 ppm: 0%
[8]; 16 ppm
  inhibition at 16 ppm: 0%
[8]; 32 ppm
  inhibition at 32 ppm: 0%
[8]; 64 ppm
  inhibition at 64 ppm: 0%
[1]
  Average 4 Week Performance: Feed Efficiency: 1.669
  Average 4 Week Performance: Gain: 723.7 g
  Improved Response Over Basal Ration: Feed Efficiency: +6.5%
  Improved Response Over Basal Ration: Gain: +6.0%
[2]; 25g/T
  Average 4 Week Performance: Feed Efficiency: 1.597
  Average 4 Week Performance: Gain: 766.9 g
  Improved Response Over Basal Ration: Feed Efficiency: +2.3%
  Improved Response Over Basal Ration: Gain: +3.1%
[9]; 0.125 ppm
  inhibition at 0.125 ppm: 100%
[9]; 0.25 ppm
  inhibition at 0.25 ppm: 100%
[9]; 0.5 ppm
  inhibition at 0.5 ppm: 100%
[9]; 1 ppm
  inhibition at 1 ppm: 100%
[9]; 2 ppm
  inhibition at 2 ppm: 100%
[9]; 4 ppm
  inhibition at 4 ppm: 100%
[9]; 8 ppm
  inhibition at 8 ppm: 100%
[9]; 16 ppm
  inhibition at 16 ppm: 100%
[9]; 32 ppm
  inhibition at 32 ppm: 100%
[9]; 64 ppm
  inhibition at 64 ppm: 100%
[10]; 0.125 ppm
  inhibition at 0.125 ppm: 100%
[10]; 0.25 ppm
  inhibition at 0.25 ppm: 100%
[10]; 0.5 ppm
  inhibition at 0.5 ppm: 100%
[10]; 1 ppm
  inhibition at 1 ppm: 100%
[10]; 2 ppm
  inhibition at 2 ppm: 100%
[10]; 4 ppm
  inhibition at 4 ppm: 100%
[10]; 8 ppm
  inhibition at 8 ppm: 100%
[10]; 16 ppm
  inhibition at 16 ppm: 100%
[10]; 32 ppm
  inhibition at 32 ppm: 100%
[10]; 64 ppm
  inhibition at 64 ppm: 100%
[11]; 0.125 ppm
  inhibition at 0.125 ppm: 100%
[11]; 0.25 ppm
  inhibition at 0.25 ppm: 100%
[11]; 0.5 ppm
  inhibition at 0.5 ppm: 100%
[11]; 1 ppm
  inhibition at 1 ppm: 100%
[11]; 2 ppm
  inhibition at 2 ppm: 100%
[11]; 4 ppm
  inhibition at 4 ppm: 100%
[11]; 8 ppm
  inhibition at 8 ppm: 100%
[11]; 16 ppm
  inhibition at 16 ppm: 100%
[11]; 32 ppm
  inhibition at 32 ppm: 100%
[11]; 64 ppm
  inhibition at 64 ppm: 100%
[12]; 0.125 ppm
  inhibition at 0.125 ppm: 0%
[12]; 0.25 ppm
  inhibition at 0.25 ppm: 0%
[12]; 0.5 ppm
  inhibition at 0.5 ppm: 0%
[12]; 1 ppm
  inhibition at 1 ppm: 0%
[12]; 2 ppm
  inhibition at 2 ppm: 0%
[12]; 4 ppm
  inhibition at 4 ppm: 0%
[12]; 8 ppm
  inhibition at 8 ppm: 0%
[12]; 16 ppm
  inhibition at 16 ppm: 0%
[12]; 32 ppm
  inhibition at 32 ppm: 0%
[12]; 64 ppm
  inhibition at 64 ppm: 0%
[13]; 0.125 ppm
  inhibition at 0.125 ppm: 100%
[13]; 0.25 ppm
  inhibition at 0.25 ppm: 100%
[13]; 0.5 ppm
  inhibition at 0.5 ppm: 100%
[13]; 1 ppm
  inhibition at 1 ppm: 100%
[13]; 2 ppm
  inhibition at 2 ppm: 100%
[13]; 4 ppm
  inhibition at 4 ppm: 100%
[13]; 8 ppm
  inhibition at 8 ppm: 100%
[13]; 16 ppm
  inhibition at 16 ppm: 100%
[13]; 32 ppm
  inhibition at 32 ppm: 100%
[13]; 64 ppm
  inhibition at 64 ppm: 100%
[14]; 0.125 ppm
  inhibition at 0.125 ppm: 100%
[14]; 0.25 ppm
  inhibition at 0.25 ppm: 100%
[14]; 0.5 ppm
  inhibition at 0.5 ppm: 100%
[14]; 1 ppm
  inhibition at 1 ppm: 100%
[14]; 2 ppm
  inhibition at 2 ppm: 100%
[14]; 4 ppm
  inhibition at 4 ppm: 100%
[14]; 8 ppm
  inhibition at 8 ppm: 100%
[14]; 16 ppm
  inhibition at 16 ppm: 100%
[14]; 32 ppm
  inhibition at 32 ppm: 100%
[14]; 64 ppm
  inhibition at 64 ppm: 100%

## [O-][n+]1cc[n+]([O-])c2ccccc21 [Quinoxaline-1,4-dioxide, quinoxaline-1,4-dioxide]
[15]
  feed efficiency (in words): improvement in feed efficiency
  growth rate (in words): questionable effect on growth
[3]
  growth rate and feed efficiency response (in words): did not have any apparent effect
